Results reported in patent publication US9125388B2, “Biological control” (Isis Innovation Limited, priority 1999, dated 2015).

Key:
Assay type in all cases: in vivo, Drosophila melanogaster
[1] = tested on: Actin5C tTa^(B, C, E) × tRe Msl-1^MPu(A, B); experiment: Single chromosome crosses at 25° C., adult progeny by sex
Description: (§1) In “single chromosome crosses” at 25° C., ten to fifteen virgin females homozygous for the tTA construct and five to ten young males homozygous for the tRe construct were placed on food containing or lacking a tetracycline supplement.

[2] = tested on: Sxlpe tTa^(A, B, C, F) × tRe Msl-1^Mpu(A, B); experiment: as above
Description: as §1

[3] = tested on: Sxlpe tTa^(A, B, C, F) × tRe Msl-2^Nopu(B, C, D); experiment: as above
Description: as §1

[4] = tested on: Yp3 tTa^(A) × tRe Msl-1^Mpu(A, B,); experiment: as above
Description: as §1

[5] = tested on: Hsp26 tTa^(A) × tRe Ras64B^V12(B, C,); experiment: as above
Description: as §1

[6] = tested on: Hsp26 tTa^(A) × tRe MSl-1^Mpu(A, B,); experiment: as above
Description: as §1

[7] = tested on: Actin5C tTa^(B, C, E) × tRe Ras64B^V12(B, C); experiment: as above
Description: as §1

[8] = tested on: Sxl^pe-tTA, tRE-Ras64B^V12 on the third chromosome; experiment: Recombinant chromosome experiments: parents raised on supplement, progeny on normal food, adults by sex (25, 18 or 29° C.); details: for Female progeny Total / Male progeny Total: Day 1-12 total
Description: (§2) 40-45 young females and 20-25 young males raised at 25° C. upon food with the indicated tetracycline supplement were allowed to mate, then transferred to normal (tetracycline-free) food after 3-4 days. These flies were transferred to fresh vials of normal food every day for 12 days, then removed on the 13th day. All the vials were incubated at 25° C. while the progeny developed. The numbers of male and female progeny emerging as adults in each vial were recorded.
(§3) A standard range of additive concentrations were used in the following experiments (0.05-20 μg/ml). […] (=“not done”)
(§4) All the preceding experiments were performed at 25° C., the standard temperature for Drosophila culture. However, the insects in the wild would clearly be exposed to varying temperatures, so we investigated the extent to which the efficiency of the system is affected by temperature. As with the recombinant chromosome experiments, 40-45 young virgin females and 20-25 young males raised at 25° C. upon food with the indicated tetracycline supplement were allowed to mate, then transferred to normal (tetracycline-free) food after 3-4 days. These flies were transferred to fresh vials of normal food every day. The numbers of male and female progeny emerging as adults in each vial were recorded. These experiments were performed at either 18° C. or 29° C.

[9] = tested on: Sxl^pe-tTA, tRE-Msl-2^Nopu on the third chromosome; experiment: as above; details: for Female progeny per daily vial / Female progeny Total / Male progeny Total: 25° C.; for Female progeny per daily vial: Day 1-12 on tetracycline-free food; for Female progeny Total / Male progeny Total: Day 1-12 total
Description: as §2, §3, §4

[10] = parents raised on Tet. 0.1 μg/ml, 25° C.
[11] = parents raised on Tet. 1 μg/ml, 25° C.
[12] = parents raised on Tet. 5 μg/ml, 25° C.
[13] = parents raised on Tet. 20 μg/ml, 25° C.
[14] = parents raised on Tet. 100 μg/ml, 25° C.
[15] = parents raised on Tet. 500 μg/ml, 25° C.
[16] = parents raised on Tet. 1000 μg/ml, 25° C.
[17] = parents raised on Tet. 2000 μg/ml, 25° C.
[18] = parents raised on tetracycline 0.1 μg/ml, 18° C.
[19] = parents raised on tetracycline 0.1 μg/ml, 29° C.
[20] = parents raised on tetracycline 1 μg/ml, 18° C.
[21] = parents raised on tetracycline 1 μg/ml, 29° C.
[22] = parents raised on tetracycline 5 μg/ml, 18° C.
[23] = parents raised on tetracycline 5 μg/ml, 29° C.
[24] = parents raised on Tet. 0.1 μg/ml
[25] = parents raised on Tet. 20 μg/ml
[26] = parents raised on Tet. 100 μg/ml
[27] = parents raised on Tet. 500 μg/ml
[28] = parents raised on Tet. 1000 μg/ml
[29] = parents raised on Tet. 2000 μg/ml

## CN(C)[C@@H]1C(O)=C(C(N)=O)C(=O)[C@@]2(O)C(O)=C3C(=O)c4c(O)cccc4[C@@](C)(O)[C@H]3C[C@@H]12 [Tetracycline, tetracycline]
[1]; Tetracycline 0.1 μg/ml in food
  Female progeny Total: 412
  Male progeny Total: 402
[1]; Tetracycline 1 μg/ml in food
  Female progeny Total: 321
  Male progeny Total: 351
[1]; Tetracycline 5 μg/ml in food
  Female progeny Total: 386
  Male progeny Total: 401
[2]; Tetracycline 0.1 μg/ml in food
  Female progeny Total: 296
  Male progeny Total: 520
[2]; Tetracycline 1 μg/ml in food
  Female progeny Total: 326
  Male progeny Total: 473
[2]; Tetracycline 5 μg/ml in food
  Female progeny Total: 304
  Male progeny Total: 535
[3]; Tetracycline 0.1 μg/ml in food
  Female progeny Total: 647
  Male progeny Total: 562
[3]; Tetracycline 1 μg/ml in food
  Female progeny Total: 644
  Male progeny Total: 674
[3]; Tetracycline 5 μg/ml in food
  Female progeny Total: 615
  Male progeny Total: 742
[4]; Tetracycline 0.1 μg/ml in food
  Female progeny Total: 336
  Male progeny Total: 379
[4]; Tetracycline 1 μg/ml in food
  Female progeny Total: 319
  Male progeny Total: 347
[4]; Tetracycline 5 μg/ml in food
  Female progeny Total: 307
  Male progeny Total: 348
[5]; Tetracycline 0.1 μg/ml in food
  Female progeny Total: 235
  Male progeny Total: 210
[5]; Tetracycline 1 μg/ml in food
  Female progeny Total: 199
  Male progeny Total: 274
[5]; Tetracycline 5 μg/ml in food
  Female progeny Total: 156
  Male progeny Total: 154
[6]; Tetracycline 0.1 μg/ml in food
  Female progeny Total: 328
  Male progeny Total: 368
[6]; Tetracycline 1 μg/ml in food
  Female progeny Total: 310
  Male progeny Total: 343
[6]; Tetracycline 5 μg/ml in food
  Female progeny Total: 313
  Male progeny Total: 347
[7]; Tetracycline 0.1 μg/ml in food
  Female progeny Total: 361
  Male progeny Total: 372
[7]; Tetracycline 1 μg/ml in food
  Female progeny Total: 427
  Male progeny Total: 383
[7]; Tetracycline 5 μg/ml in food
  Female progeny Total: 375
  Male progeny Total: 400
[8]; parents raised on Tet. 0.1 μg/ml, 25° C., Day 1-12 on tetracycline-free food
  Female progeny per daily vial: 0
[8]; [10]
  Female progeny Total: 0
  Male progeny Total: 1541
[8]; parents raised on Tet. 1 μg/ml, 25° C., Day 1-12 on tetracycline-free food
  Female progeny per daily vial: 0
[8]; [11]
  Female progeny Total: 0
  Male progeny Total: 1441
[8]; parents raised on Tet. 5 μg/ml, 25° C., Day 1-12 on tetracycline-free food
  Female progeny per daily vial: 0
[8]; [12]
  Female progeny Total: 0
  Male progeny Total: 1421
[8]; parents raised on Tet. 20 μg/ml, 25° C., Day 1-12 on tetracycline-free food
  Female progeny per daily vial: 0
[8]; [13]
  Female progeny Total: 0
  Male progeny Total: 1487
[8]; parents raised on Tet. 100 μg/ml, 25° C., Day 1-12 on tetracycline-free food
  Female progeny per daily vial: 0
[8]; [14]
  Female progeny Total: 0
  Male progeny Total: 1416
[8]; [15]
  Female progeny Total: 72
  Male progeny Total: 1388
[8]; [16]
  Female progeny Total: 87
  Male progeny Total: 1416
[8]; parents raised on Tet. 2000 μg/ml, 25° C., Day 1-12 on tetracycline-free food, listed as Tet.
  Male progeny per daily vial: 123
[8]; [17]
  Female progeny Total: 161
  Male progeny Total: 1438
[8]; [18]
  Female progeny emerging as adults: 6
  Male progeny emerging as adults: 1065
[8]; [19]
  Female progeny emerging as adults: 0
  Male progeny emerging as adults: 781
[8]; [20]
  Female progeny emerging as adults: 9
  Male progeny emerging as adults: 1124
[8]; [21]
  Female progeny emerging as adults: 0
  Male progeny emerging as adults: 749
[8]; [22]
  Female progeny emerging as adults: 7
  Male progeny emerging as adults: 989
[8]; [23]
  Female progeny emerging as adults: 0
  Male progeny emerging as adults: 741
[9]; [24]
  Female progeny per daily vial: 0
  Female progeny Total: 0
  Male progeny Total: 1267
[9]; parents raised on Tet. 1 μg/ml
  Female progeny per daily vial: 0
  Female progeny Total: 0
  Male progeny Total: 1171
[9]; parents raised on Tet. 5 μg/ml
  Female progeny per daily vial: 0
  Female progeny Total: 0
  Male progeny Total: 1165
[9]; [25]
  Female progeny per daily vial: 0
  Female progeny Total: 0
  Male progeny Total: 1127
[9]; [26]
  Female progeny per daily vial: 0
  Female progeny Total: 0
  Male progeny Total: 1168
[9]; [27]
  Female progeny per daily vial: 0
  Female progeny Total: 0
  Male progeny Total: 1137
[9]; [28]
  Female progeny Total: 3
  Male progeny Total: 1309
[9]; [29]
  Female progeny Total: 32
  Male progeny Total: 1325
[9]; [18]
  Female progeny emerging as adults: 2
  Male progeny emerging as adults: 973
[9]; [19]
  Female progeny emerging as adults: 0
  Male progeny emerging as adults: 749
[9]; [20]
  Female progeny emerging as adults: 9
  Male progeny emerging as adults: 985
[9]; [21]
  Female progeny emerging as adults: 0
  Male progeny emerging as adults: 737
[9]; [22]
  Female progeny emerging as adults: 5
  Male progeny emerging as adults: 983
[9]; [23]
  Female progeny emerging as adults: 0
  Male progeny emerging as adults: 718
